The results in this text go back to US9393228B2, “Combination of a slow sodium current blocker and a sinus If current inhibitor, and the pharmaceutical compositions containing said combination” (PIERRE FABRE MEDICAMENT, priority 2013, dated 2016).

Counter-ions that a name gives are not always drawn.

This assay has as its system anesthetized rabbits. Nature of the assay: ST segment elevation by occlusion of the circumflex coronary artery in anesthetized rabbits (anti-ischemic activity, with blood pressure and heart rate). The format is in vivo, rabbit. To be noted: for Heart rate / Mean blood pressure: 5 minutes after i.v. administration; for Heart rate / Mean blood pressure / effect on heart rate (in words): compound B 0.63 mg/kg; for effect on ST segment elevation (in words): i.v. slow bolus, compound A 0.04 mg/kg or compound B 0.63 mg/kg, 5 min before 5 min circumflex occlusion. The method, then:
The anti-ischemic activity of 3-(R)-[3-(2-methoxyphenylthio)-2-(S)-methyl-propyl]amino-3,4-dihydro-2H-1,5-benzoxathiepine combined with ivabradine was evaluated in a model of ST segment elevation by occlusion of the circumflex coronary artery in anesthetized rabbits.
Male rabbits (2.2-2.5 kg) are anesthetized with pentobarbital. A catheter is placed in a carotid artery in order to continuously measure the animal's blood pressure. Blood samples are taken in order to regularly check blood gases and to modify ventilation parameters as needed. The compounds to be tested or the carriers are administered via a catheter placed in an ear vein. An electrocardiogram is recorded, also continuously, in configuration II in order to determine the variations of amplitude of the ST segment. The animal's thorax is opened and a ligature is placed around the left coronary artery (circumflex) in order to induce regional myocardial ischemia (Verscheure et al., 1995). After a period of stabilization of all hemodynamic parameters, the compounds are administered in a slow bolus (1 minute). Five minutes after the compounds are administered, the circumflex artery is occluded for 5 minutes and then the ligature is released. The heart is removed and the risk area (ligatured region of the circumflex artery) is evaluated. Four groups of rabbits are studied: • group receiving carrier: 40% polyethylene 300, 60% physiological saline; • group receiving 3-(R)-[3-(2-methoxyphenylthio)-2-(S)-methyl-propyl]amino-3,4-dihydro-2H-1,5-benzoxathiepine (compound A) at a dose of 0.04 mg/kg; • group receiving ivabradine hydrochloride (compound B) at a dose of 0.63 mg/kg; • group receiving compound A (0.04 mg/kg)+compound B (0.63 mg/kg).
The doses were selected in order to have submaximal pharmacological activities and thus to uncover potential additive or synergistic effects.

For the compound `COc1cc2c(cc1OC)CC(=O)N(CCCN(C)C[C@H]1Cc3cc(OC)c(OC)cc31)CC2` [Compound B, ivabradine hydrochloride, reference compound], the “effect on ST segment elevation (in words)” value is on record as “lower ST segment elevation”. In addition, where the note is “compound A 0.04 mg/kg”, the Heart rate is recorded as 211 ± 10 bpm and the Mean blood pressure is listed as 92 ± 3 mmHg. Besides, the “effect on heart rate (in words)” value (i.v., compound A 0.04 mg/kg) was “relatively significant and constant bradycardia”.

As to `COc1ccccc1SC[C@@H](C)CN[C@@H]1COc2ccccc2SC1` [Compound A, 3-(R)-[3-(2-methoxyphenylthio)-2-(S)-methyl-propyl]amino-3,4-dihydro-2H-1,5-benzoxathiepine], the “effect on ST segment elevation (in words)” value is “slight inhibition”. Where the note is “compound A 0.04 mg/kg”, the Heart rate stood at 275 ± 10 bpm and the Mean blood pressure is given as 92 ± 4 mmHg. In addition, for the setting “i.v., compound A 0.04 mg/kg”, the “effect on blood pressure (in words)” value is on record as “without changing” and the “effect on heart rate (in words)” value is “without changing”.
